These results are taken from ChEMBL document CHEMBL4334471, “Discovery of 1,8-disubstituted-[1,2,3]triazolo[4,5-c]quinoline derivatives as a new class of Hippo signaling pathway inhibitors” (Bioorg Med Chem Lett, 2019).

The target in assay [1] is NUAK family SNF1-like kinase 1 (Homo sapiens) (UniProt O60285). Briefly: Inhibition of recombinant human ARK5 (2 to end residues) assessed as residual activity at 10 uM using KKKVSRSGLYRSPSMPENLNRPR as substrate incubated for 40 mins in presence of [gamma-33ATP] by scintillation counting based radiometry assay relative to control.
Assay [2] deals with Tyrosine-protein kinase BTK (Homo sapiens), Q06187 [R28H]. Briefly: Inhibition of recombinant full length human BTK R28H mutant assessed as residual activity at 10 uM using LSNLYHQGKFLQTFCGSPLYRRR substrate incubated for 40 mins in presence of [gamma-33ATP] by scintillation counting based radiometry assay relative to control.
Assay [3] has as its target Casein kinase I isoform gamma-1 (Homo sapiens) (UniProt Q9HCP0). In words: Inhibition of recombinant human CK1gamma1 assessed as residual activity at 10 uM using KRRRALS(p)VASLPGL as substrate incubated for 40 mins in presence of [gamma-33ATP] by scintillation counting based radiometry assay relative to control.
For assay [4], the target named is Dual specificity protein kinase CLK4 (Homo sapiens) (UniProt Q9HAZ1). In words: Inhibition of recombinant human CLK4 (128 to end residues) assessed as residual activity at 10 uM using YRRAAVPPSPSLSRHSSPHQS(p)EDEEE as substrate incubated 40 mins in presence of [gamma-33ATP] by scintillation counting based radiometry assay relative to control.
Assay [5] addresses Serine/threonine-protein kinase DCLK3 (Homo sapiens) (UniProt Q9C098). In words: Inhibition of recombinant human DCAMKL3 (345 to end residues) assessed as residual activity at 10 uM using KKLNRTLSFAEPG as substrate at 40 mins in presence of [gamma-33ATP] by scintillation counting based radiometry assay relative to control.
Assay [6] relates to Fibroblast growth factor receptor 2 (Homo sapiens), P21802 [N549H]. Briefly: Inhibition of recombinant human FGFR2 N549H mutant (456 to 765 residues) assessed as residual activity at 10 uM using KKKSPGEYVNIEF as substrate at 40 mins in presence of [gamma-33ATP] by scintillation counting based radiometry assay relative to control.
In assay [7] the target is Vascular endothelial growth factor receptor 2 (Homo sapiens) (UniProt P35968). In words: Inhibition of human KDR (790 to end residues) assessed as residual activity at 10 uM using myelin basic protein as substrate after 40 mins by [gamma-33ATP] radiometric assay relative to control.
Assay [8] concerns the target Serine/threonine-protein kinase 10 (Homo sapiens) (UniProt O94804). Briefly: Inhibition of recombinant human LOK (1 to 348 residues) assessed as residual activity at 10 uM using RLGRDKYKTLRQI as substrate after 40 mins in presence of [gamma-33ATP] by scintillation counting based radiometry assay relative to control.
The target of assay [9] is Dual specificity mitogen-activated protein kinase kinase 1 (Homo sapiens) (UniProt Q02750). Briefly: Inhibition of recombinant human MEK1 assessed as residual activity at 10 uM using inactive MAPK2 as substrate incubated for 40 mins in presence of [gamma-33ATP by scintillation counting based radiometry assay relative to control.
The target in assay [10] is Serine/threonine-protein kinase MRCK alpha (Homo sapiens) (UniProt Q5VT25). Briefly: Inhibition of recombinant human MRCKalpha (1 to 473 residues) assessed as residual activity at 10 uM using KKRNRTLTV as substrate incubated for 40 mins in presence of [gamma-33ATP by scintillation counting based radiometry assay relative to control.
Assay [11] concerns Platelet-derived growth factor receptor alpha (Homo sapiens), P16234 [V561D]. Briefly: Inhibition of human PDGFRalpha V561D mutant (550 to end residues) assessed as residual activity at 10 uM using poly(Glu, Tyr) 4:1 as substrate measured after 40 mins in presence of [gamma33P]ATP by scintillation counting based radiometry assay relative to control.
In assay [12] the target is Serine/threonine-protein kinase pim-1 (Homo sapiens) (UniProt P11309). In words: Inhibition of recombinant full length human Pim1 assessed as residual activity at 10 uM using KKRNRTLTV as substrate incubated for 40 mins in presence of [gamma33P]ATP by scintillation counting based radiometry assay relative to control.
The target in assay [13] is Interferon-induced, double-stranded RNA-activated protein kinase (Homo sapiens) (UniProt P19525). Briefly: Inhibition of recombinant human PKR (252 to end residues) assessed as residual activity at 10 uM using RSRSRSRSRSRSRSR as substrate incubated for 40 mins in presence of [gamma33P]ATP by scintillation counting based radiometry assay relative to control.
Assay [14] concerns the target Protein-tyrosine kinase 2-beta (Homo sapiens) (UniProt Q14289). In words: Inhibition of recombinant human full length PYK2 assessed as residual activity at 10 uM using poly(Glu, Tyr) 4:1 as substrate incubated for 40 mins in presence of [gamma33P]ATP by scintillation counting based radiometry assay relative to control.
In assay [15] the target is Tyrosine-protein kinase receptor TYRO3 (Homo sapiens) (UniProt Q06418). In words: Inhibition of recombinant human RSE (451 to end residues) assessed as residual activity at 10 uM using KVEKIGEGTYGVVYK as substrate incubated for 40 mins in presence of [gamma33P]ATP by scintillation counting based radiometry assay relative to control.
Assay [16] deals with Mitogen-activated protein kinase 13 (Homo sapiens) (UniProt O15264). Briefly: Inhibition of recombinant human full length SAPK4 assessed as residual activity at 10 uM using myelin basic protein as substrate incubated for 40 mins in presence of [gamma33P]ATP by scintillation counting based radiometry assay relative to control.
Assay [17] deals with Serine/threonine-protein kinase TAO2 (Homo sapiens) (UniProt Q9UL54). In words: Inhibition of recombinant human TAO2 (1 to 320 residues) assessed as residual activity at 10 uM using myelin basic protein as substrate incubated for 40 mins in presence of [gamma33P]ATP by scintillation counting based radiometry assay relative to control.
The species named for another assay is Homo sapiens. In words: Inhibition of activated recombinant human TEC F514V mutant activated (174 to end residues) assessed as residual activity at 10 uM using EFPIYDFLPAKKK as substrate incubated for 40 mins in presence of [gamma33P]ATP by scintillation counting based radiometry assay relative to control.
For assay [18], the target named is Serine/threonine-protein kinase ULK3 (Homo sapiens) (UniProt Q6PHR2). Briefly: Inhibition of recombinant human full length ULK3 assessed as residual activity at 10 uM using casein as substrate incubated for 40 mins in presence of [gamma33P]ATP by scintillation counting based radiometry assay relative to control.
Another assay is filed under the species Mus musculus. Briefly: Inhibition of recombinant full length mouse PI3K p110/p85 assessed as residual activity at 10 uM using phosphatidylinositol-4, 5-bisphosphate as substrate incubated for 40 mins in presence of [gamma33P]ATP by scintillation counting based radiometry assay relative to control.
The target in assay [19] is Dual specificity mitogen-activated protein kinase kinase 4 (Mus musculus) (UniProt P47809). Briefly: Inhibition of recombinant mouse MKK4 (34 to end residues) assessed as residual activity at 10 uM using poly(Glu, Tyr) 4:1 as substrate incubated for 40 mins in presence of [gamma-33ATP] by scintillation counting based radiometry assay relative to control.

Chain of Serine/threonine-protein kinase 10 (Homo sapiens) (O94804 whole entry, looked up, the tested form may be a part): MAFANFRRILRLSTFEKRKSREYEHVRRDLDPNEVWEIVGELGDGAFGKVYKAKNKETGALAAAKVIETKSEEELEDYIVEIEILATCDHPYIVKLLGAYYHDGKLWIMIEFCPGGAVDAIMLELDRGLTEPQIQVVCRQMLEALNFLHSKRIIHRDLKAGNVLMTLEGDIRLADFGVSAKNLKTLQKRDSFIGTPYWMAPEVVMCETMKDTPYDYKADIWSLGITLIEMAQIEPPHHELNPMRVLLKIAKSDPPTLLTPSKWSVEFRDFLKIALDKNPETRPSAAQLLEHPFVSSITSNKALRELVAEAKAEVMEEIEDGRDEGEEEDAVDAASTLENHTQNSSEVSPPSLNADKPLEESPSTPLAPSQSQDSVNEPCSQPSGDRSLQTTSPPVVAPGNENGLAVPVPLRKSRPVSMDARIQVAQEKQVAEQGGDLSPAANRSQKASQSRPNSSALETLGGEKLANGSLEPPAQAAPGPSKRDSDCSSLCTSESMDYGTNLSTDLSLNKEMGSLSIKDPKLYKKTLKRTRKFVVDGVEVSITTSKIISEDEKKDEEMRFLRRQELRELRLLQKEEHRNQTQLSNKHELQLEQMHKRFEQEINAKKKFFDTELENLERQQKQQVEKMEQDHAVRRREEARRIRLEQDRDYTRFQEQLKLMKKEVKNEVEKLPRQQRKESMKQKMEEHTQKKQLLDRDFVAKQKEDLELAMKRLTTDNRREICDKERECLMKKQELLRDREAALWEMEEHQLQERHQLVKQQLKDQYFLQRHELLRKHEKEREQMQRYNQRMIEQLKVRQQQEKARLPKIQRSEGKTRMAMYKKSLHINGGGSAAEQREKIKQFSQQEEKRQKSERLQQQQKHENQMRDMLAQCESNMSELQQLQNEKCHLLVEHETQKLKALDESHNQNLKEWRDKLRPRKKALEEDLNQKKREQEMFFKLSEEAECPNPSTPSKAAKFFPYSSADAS
Chain of Platelet-derived growth factor receptor alpha (Homo sapiens), P16234 [V561D] (P16234 whole entry V561D): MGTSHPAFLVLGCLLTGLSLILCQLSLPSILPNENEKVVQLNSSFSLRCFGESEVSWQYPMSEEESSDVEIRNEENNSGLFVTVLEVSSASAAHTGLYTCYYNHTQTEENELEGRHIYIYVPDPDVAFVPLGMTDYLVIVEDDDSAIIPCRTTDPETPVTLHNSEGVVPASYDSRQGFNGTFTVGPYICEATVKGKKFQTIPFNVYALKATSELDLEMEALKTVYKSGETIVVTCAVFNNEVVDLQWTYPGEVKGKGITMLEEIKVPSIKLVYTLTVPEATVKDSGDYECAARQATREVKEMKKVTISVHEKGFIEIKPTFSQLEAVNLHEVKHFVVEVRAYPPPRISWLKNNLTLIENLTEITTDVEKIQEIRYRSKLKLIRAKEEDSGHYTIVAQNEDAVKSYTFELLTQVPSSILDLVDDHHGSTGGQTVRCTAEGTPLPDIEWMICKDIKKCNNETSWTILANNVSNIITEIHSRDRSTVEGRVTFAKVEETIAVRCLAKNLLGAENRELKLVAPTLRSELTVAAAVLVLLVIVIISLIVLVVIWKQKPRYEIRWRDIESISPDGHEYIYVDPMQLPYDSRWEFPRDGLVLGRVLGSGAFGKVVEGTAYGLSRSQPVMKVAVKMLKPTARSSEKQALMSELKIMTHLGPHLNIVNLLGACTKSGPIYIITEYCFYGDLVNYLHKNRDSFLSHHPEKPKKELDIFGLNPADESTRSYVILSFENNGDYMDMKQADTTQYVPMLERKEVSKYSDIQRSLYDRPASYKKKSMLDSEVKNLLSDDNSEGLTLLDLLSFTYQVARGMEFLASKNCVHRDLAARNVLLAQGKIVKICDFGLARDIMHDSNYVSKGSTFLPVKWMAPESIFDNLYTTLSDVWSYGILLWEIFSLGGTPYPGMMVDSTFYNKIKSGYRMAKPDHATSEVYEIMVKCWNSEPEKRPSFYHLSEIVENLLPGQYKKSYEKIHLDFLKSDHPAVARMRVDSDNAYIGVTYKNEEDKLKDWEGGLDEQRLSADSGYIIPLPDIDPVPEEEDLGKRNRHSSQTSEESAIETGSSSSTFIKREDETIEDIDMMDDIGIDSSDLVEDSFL
Chain of Tyrosine-protein kinase BTK (Homo sapiens), Q06187 [R28H] (Q06187 whole entry R28H, canonical isoform): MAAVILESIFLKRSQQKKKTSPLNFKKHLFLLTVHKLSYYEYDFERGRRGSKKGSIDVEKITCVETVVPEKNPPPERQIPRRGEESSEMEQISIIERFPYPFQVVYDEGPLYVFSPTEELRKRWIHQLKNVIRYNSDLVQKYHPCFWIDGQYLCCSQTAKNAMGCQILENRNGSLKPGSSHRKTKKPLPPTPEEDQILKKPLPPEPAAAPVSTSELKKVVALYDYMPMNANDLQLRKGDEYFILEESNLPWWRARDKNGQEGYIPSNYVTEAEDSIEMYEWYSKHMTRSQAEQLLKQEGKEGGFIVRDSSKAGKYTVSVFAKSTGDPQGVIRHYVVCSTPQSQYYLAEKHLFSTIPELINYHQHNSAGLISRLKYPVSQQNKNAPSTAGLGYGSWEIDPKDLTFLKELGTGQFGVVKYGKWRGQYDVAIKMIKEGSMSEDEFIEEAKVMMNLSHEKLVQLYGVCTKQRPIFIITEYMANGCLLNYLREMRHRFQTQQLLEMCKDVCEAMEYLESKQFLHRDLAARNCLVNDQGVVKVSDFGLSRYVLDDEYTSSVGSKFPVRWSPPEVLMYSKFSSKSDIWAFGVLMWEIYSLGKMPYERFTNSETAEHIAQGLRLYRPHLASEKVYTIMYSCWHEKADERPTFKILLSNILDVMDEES
Chain of Serine/threonine-protein kinase MRCK alpha (Homo sapiens) (Q5VT25 whole entry, the tested form may be a part): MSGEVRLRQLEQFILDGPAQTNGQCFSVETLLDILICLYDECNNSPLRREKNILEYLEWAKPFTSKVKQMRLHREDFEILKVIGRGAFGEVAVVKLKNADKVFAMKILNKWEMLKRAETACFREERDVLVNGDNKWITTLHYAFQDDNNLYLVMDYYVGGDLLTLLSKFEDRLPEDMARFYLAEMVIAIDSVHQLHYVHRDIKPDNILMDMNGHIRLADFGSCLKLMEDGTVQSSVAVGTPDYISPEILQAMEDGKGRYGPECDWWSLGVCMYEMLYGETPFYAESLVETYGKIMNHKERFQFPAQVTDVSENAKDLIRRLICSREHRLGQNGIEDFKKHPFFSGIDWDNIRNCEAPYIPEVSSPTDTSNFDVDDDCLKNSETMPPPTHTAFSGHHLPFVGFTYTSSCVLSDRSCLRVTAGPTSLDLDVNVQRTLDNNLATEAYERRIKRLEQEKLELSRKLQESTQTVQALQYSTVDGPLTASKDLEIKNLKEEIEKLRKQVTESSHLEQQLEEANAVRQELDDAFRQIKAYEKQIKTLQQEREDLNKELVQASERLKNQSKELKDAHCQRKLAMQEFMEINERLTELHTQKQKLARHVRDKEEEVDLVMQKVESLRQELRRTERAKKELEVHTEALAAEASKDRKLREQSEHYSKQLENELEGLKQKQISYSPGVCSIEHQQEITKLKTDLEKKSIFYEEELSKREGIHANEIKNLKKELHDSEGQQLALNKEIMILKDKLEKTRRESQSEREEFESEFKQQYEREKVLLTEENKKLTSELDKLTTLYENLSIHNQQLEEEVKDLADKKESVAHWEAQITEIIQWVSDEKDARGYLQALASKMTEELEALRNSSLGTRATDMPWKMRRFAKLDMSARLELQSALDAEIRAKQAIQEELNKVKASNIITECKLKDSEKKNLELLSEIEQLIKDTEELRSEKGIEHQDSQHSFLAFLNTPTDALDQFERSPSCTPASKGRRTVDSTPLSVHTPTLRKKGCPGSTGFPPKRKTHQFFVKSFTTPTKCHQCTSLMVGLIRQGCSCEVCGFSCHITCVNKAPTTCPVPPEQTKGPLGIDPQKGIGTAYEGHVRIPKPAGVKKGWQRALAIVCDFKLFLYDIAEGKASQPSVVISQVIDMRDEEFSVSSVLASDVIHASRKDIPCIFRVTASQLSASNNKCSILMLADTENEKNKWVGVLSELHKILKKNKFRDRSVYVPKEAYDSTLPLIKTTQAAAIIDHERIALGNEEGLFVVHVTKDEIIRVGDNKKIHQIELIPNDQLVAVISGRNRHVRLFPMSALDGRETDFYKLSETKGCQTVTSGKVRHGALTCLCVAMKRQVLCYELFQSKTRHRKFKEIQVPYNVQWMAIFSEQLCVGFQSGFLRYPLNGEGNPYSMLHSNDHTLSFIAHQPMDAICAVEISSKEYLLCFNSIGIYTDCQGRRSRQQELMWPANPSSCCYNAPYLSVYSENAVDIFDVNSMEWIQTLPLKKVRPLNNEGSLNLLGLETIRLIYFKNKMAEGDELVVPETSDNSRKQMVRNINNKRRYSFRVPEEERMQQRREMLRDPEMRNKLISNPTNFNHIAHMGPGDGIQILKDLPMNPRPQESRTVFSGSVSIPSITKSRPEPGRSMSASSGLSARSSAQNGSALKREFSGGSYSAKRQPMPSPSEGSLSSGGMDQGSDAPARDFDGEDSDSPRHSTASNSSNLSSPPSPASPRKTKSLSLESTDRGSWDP
Chain of Interferon-induced, double-stranded RNA-activated protein kinase (Homo sapiens) (P19525 whole entry): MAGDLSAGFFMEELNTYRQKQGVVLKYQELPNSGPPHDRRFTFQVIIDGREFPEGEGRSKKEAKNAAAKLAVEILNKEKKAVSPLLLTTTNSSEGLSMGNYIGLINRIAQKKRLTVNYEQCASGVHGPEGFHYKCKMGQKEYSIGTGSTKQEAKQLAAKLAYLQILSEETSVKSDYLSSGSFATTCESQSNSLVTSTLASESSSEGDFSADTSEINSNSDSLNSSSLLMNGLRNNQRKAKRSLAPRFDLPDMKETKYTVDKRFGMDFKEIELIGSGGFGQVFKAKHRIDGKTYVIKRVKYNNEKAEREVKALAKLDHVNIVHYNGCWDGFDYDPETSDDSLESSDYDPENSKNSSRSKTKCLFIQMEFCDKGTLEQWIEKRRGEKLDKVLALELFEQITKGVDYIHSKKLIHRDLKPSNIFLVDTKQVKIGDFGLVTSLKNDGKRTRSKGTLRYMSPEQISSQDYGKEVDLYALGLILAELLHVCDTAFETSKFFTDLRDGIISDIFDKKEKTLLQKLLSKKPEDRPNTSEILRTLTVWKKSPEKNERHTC

As for `C[C@@H](c1ccccc1)n1nnc2cnc3ccc(-c4cnc5[nH]ccc5c4)cc3c21`, the Activity worked out at 73% in assay [1]; 116% in assay [2]; 48% in assay [3]; 46% in assay [4]; 66% in assay [5]; 27% in [6]. Further, the Activity in assay [7] worked out at 63%; in [8], 54%; in assay [9], 85%; in [10] it was 105%; in assay [11], 2%; in [12], 68%. For the same molecule, the Activity in assay [13] was determined as 81%; in [14], 59%; in assay [15] it was 89%; in [16] it was 97%; in assay [17], 85%; in the assay listed under Homo sapiens it was 35%. For the same molecule, the Activity is 94% in [18], 4 to 12% in the assay listed under Mus musculus and 129% in [19].
